Columns and labels:
Format in all cases: cell-based
SMARCA2 [1] = biological target: T1, SMARCA2 (Homo sapiens, UniProt P51531); experiment: MSD SMARCA2 degradation in A549 cell line; conditions: 24 h; for Dmax: A549, A549 cells; for DC50: A549 cells, read-out: SMARCA2 MSD A549 degradation 24 h: Average external-Abs DC50
Summary of the method: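 SMARCA2 protein remaining after 24 h exposure of A549 cells (top concentration 1000 nM, 3-fold dilutions) was measured by MSD electrochemiluminescence immunoassay of cell lysates. Results are given as binned DC50 and maximal degradation (Dmax) codes.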

SMARCA2 [2] = biological target: T1, SMARCA2; experiment: SMARCA2 Western blot degradation in MV4-11 cells; set-up: SMARCA2/SMARCA4 protein degradation selectivity in MV4-11 cells; endogenous in cells; host or cells: MV4-11; conditions: for Dmax: MV4-11, MV4-11 cells, read-out: SMARCA2 MSD MV411 degradation 24 h: average Dmax %; for Dmax / DC50: 24 h; for DC50 / Selectivity in MV411: MV4-11 cells; for DC50: read-out: SMARCA2 MSD MV411 degradation 24 h: Mean external-Abs DC50; for Selectivity in MV411: SMARCA2/4 selectivity
SMARCA4 = biological target: T2, SMARCA4 (Homo sapiens, UniProt P51532); experiment: SMARCA4 Western blot degradation in MV4-11 cells; conditions: 24 h; for Dmax: MV4-11, MV4-11 cells, read-out: SMARCA4 MSD MV411 degradation 24 h: average Dmax %; for DC50: MV4-11 cells, read-out: SMARCA4 MSD MV411 degradation 24 h: Mean external-Abs DC50
T2 construct: SMARCA2/SMARCA4 protein degradation selectivity in MV4-11 cells; endogenous in cells; host or cells: MV4-11
T2 sequence (P51532 whole entry): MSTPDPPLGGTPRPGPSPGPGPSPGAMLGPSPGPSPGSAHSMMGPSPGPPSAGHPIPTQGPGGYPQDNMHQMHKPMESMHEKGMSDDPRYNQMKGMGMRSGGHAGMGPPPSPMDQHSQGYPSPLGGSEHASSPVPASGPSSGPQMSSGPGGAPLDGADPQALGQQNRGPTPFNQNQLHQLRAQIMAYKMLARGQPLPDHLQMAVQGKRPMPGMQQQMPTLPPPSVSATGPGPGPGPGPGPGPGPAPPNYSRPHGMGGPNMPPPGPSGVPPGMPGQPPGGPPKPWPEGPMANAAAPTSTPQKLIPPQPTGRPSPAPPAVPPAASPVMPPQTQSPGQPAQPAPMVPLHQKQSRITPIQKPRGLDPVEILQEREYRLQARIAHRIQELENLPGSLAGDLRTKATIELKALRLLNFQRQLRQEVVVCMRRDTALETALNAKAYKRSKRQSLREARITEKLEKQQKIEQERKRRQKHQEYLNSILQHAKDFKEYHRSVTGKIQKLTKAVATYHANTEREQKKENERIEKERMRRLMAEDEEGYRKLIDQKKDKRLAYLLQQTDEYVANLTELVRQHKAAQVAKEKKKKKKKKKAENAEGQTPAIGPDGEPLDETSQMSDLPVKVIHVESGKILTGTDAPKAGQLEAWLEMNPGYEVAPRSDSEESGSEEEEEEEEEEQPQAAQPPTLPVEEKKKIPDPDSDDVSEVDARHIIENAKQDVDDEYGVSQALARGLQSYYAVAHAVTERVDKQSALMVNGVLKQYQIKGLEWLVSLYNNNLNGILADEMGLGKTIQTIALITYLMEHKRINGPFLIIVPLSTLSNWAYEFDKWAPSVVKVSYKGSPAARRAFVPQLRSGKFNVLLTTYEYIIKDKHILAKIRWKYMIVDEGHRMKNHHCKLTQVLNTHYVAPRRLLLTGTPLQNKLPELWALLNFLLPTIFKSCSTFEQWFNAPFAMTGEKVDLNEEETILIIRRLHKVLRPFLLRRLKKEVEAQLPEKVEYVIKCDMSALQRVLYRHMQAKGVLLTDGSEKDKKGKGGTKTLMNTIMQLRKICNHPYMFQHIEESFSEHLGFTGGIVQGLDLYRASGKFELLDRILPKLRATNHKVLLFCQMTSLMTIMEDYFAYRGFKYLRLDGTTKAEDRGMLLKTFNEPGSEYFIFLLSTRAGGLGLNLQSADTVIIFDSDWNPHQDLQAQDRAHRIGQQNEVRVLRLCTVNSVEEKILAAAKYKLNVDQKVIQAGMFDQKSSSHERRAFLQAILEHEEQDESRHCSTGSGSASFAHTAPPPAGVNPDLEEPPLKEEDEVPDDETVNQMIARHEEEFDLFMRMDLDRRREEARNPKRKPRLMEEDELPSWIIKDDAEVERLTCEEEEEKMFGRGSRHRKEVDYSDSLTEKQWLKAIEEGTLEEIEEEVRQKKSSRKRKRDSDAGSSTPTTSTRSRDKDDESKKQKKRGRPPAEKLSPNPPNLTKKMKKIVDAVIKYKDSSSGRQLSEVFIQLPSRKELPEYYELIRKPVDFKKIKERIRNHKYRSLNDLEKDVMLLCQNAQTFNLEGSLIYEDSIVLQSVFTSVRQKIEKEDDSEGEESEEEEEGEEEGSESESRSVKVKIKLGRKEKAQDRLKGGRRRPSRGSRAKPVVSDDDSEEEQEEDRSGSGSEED
Summary of the method: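 Protein levels quantified by LI-COR Western blot (beta-actin loading control) in RIPA lysates of MV4-11 cells after 24 h compound exposure. Degradation reported as DC50, Dmax % at 24 h and SMARCA2 vs SMARCA4 selectivity, each binned into letter codes.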

T1 sequence (P51531 whole entry): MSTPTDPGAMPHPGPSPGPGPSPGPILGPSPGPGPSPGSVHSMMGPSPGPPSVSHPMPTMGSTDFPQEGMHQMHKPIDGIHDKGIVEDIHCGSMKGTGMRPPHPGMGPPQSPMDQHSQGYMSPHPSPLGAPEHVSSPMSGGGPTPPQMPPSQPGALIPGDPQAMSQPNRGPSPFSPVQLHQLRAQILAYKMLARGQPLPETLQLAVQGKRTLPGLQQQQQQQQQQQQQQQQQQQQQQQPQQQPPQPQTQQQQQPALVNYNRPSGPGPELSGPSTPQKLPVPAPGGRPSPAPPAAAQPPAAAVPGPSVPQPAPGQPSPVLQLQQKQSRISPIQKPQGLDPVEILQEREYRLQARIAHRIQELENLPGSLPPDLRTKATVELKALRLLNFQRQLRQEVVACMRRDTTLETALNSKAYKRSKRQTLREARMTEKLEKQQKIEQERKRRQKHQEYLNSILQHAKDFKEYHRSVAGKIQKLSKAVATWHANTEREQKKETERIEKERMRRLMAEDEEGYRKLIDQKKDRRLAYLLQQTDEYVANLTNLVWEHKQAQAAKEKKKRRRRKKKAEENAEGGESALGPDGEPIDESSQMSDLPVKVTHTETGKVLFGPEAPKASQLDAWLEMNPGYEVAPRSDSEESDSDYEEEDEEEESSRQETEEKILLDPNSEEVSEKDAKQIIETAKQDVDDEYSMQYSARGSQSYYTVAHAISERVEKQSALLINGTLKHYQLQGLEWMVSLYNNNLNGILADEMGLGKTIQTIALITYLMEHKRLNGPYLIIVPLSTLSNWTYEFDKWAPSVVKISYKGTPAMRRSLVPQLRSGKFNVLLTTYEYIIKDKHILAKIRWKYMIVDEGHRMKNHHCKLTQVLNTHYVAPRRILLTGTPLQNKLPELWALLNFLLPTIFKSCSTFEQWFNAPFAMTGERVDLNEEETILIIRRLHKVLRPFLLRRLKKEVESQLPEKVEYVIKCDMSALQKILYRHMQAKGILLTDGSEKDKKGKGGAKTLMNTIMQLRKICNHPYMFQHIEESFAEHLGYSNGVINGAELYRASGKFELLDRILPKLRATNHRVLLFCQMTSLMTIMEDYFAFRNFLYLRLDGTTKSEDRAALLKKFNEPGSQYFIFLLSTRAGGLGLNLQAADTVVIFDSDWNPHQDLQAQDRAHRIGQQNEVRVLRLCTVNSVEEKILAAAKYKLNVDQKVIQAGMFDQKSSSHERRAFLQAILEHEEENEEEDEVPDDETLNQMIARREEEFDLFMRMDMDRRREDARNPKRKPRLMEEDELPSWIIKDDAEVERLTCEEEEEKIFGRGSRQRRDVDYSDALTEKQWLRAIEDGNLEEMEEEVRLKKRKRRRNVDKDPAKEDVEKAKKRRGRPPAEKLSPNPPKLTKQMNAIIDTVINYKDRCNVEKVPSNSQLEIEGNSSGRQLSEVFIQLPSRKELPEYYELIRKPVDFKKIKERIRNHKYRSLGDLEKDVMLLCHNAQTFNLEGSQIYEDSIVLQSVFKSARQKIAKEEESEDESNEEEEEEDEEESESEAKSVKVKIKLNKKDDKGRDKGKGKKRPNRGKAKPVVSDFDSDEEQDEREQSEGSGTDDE

| Structure (SMILES) | Dmax (SMARCA2 [1]) | DC50 (SMARCA2 [1]) | Dmax (SMARCA2 [2]) | DC50 (SMARCA2 [2]) | Selectivity in MV411 (SMARCA2 [2]) | Dmax (SMARCA4) | DC50 (SMARCA4) |
| --- | --- | --- | --- | --- | --- | --- | --- |
| C#Cc1ccc(CNC(=O)[C@@H]2C[C@@H](O)CN2C(=O)[C@@H](NC(=O)N2CC3(CC(N4CCC(c5cnc(N6CCc7[nH]c8nnc(-c9ccccc9O)cc8c7[C@H]6C)nc5)CC4)C3)C2)C(C)(C)C)c(OC)c1 [I-119] | > 90% | < 10 nM | > 90% | 1 to 10 nM | C (C (10-100 fold)) | > 90% | 10 to 100 nM |
| C#Cc1ccc(CNC(=O)[C@@H]2C[C@@H](O)CN2C(=O)[C@@H](NC(=O)N2CC3(CC(N4CCC(c5cnc(N6CCc7[nH]c8nnc(-c9ccccc9O)cc8c7[C@H]6C)nc5)CC4)C3)C2)C(C)(C)C)c(F)c1 [I-120] | > 90% | 10 to 50 nM | 70 to 90% | 10 to 100 nM | B (B (>100-500 fold)) | 50 to 70% | > 100 nM |
| CC#Cc1ccc(CNC(=O)[C@@H]2C[C@@H](O)CN2C(=O)[C@@H](NC(=O)N2CC3(CC(N4CCC(c5cnc(N6CCc7[nH]c8nnc(-c9ccccc9O)cc8c7[C@H]6C)nc5)CC4)C3)C2)C(C)(C)C)cc1 [I-121] | > 90% | 50 to 100 nM | 50 to 70% | 10 to 100 nM | B (B (>100-500 fold)) | < 50% | > 100 nM |
| C#Cc1ccc(CNC(=O)[C@@H]2C[C@@H](O)CN2C(=O)[C@@H](NC(=O)N2CC3(CC(N4CCC(c5cnc(N6CCc7[nH]c8nnc(-c9ccccc9O)cc8c7[C@H]6C)nc5)CC4)C3)C2)C(C)(C)C)c(OCCCN(C)C)c1 [I-127] | > 90% | > 100 nM | 70 to 90% | 10 to 100 nM | D (D (<10 fold)) | 70 to 90% | > 100 nM |
| C#Cc1ccc(CNC(=O)[C@@H]2C[C@@H](O)CN2C(=O)[C@@H](NC(=O)N2CC3(CC(N4CCC(c5cnc(N6CCc7[nH]c8nnc(-c9ccccc9O)cc8c7[C@H]6C)nc5)CC4)C3)C2)C(C)(C)C)c(OCCCOC)c1 [I-128] | > 90% | < 10 nM | > 90% | 1 to 10 nM | D (D (<10 fold)) | > 90% | 10 to 100 nM |
| C#Cc1ccc(CNC(=O)[C@@H]2C[C@@H](O)CN2C(=O)[C@@H](NC(=O)N2CC3(CC(N4CCC(c5cnc(N6CCc7[nH]c8nnc(-c9ccccc9O)cc8c7[C@H]6CC)nc5)CC4)C3)C2)C(C)(C)C)cc1 [I-136] | > 90% | 10 to 50 nM | 70 to 90% | 1 to 10 nM | C (C (10-100 fold)) | 70 to 90% | > 100 nM |
| C#Cc1ccc(CNC(=O)[C@@H]2C[C@@H](O)CN2C(=O)[C@@H](NC(=O)C2CC3(C2)CC(N2CCC(N4CCC(N5CCN6c7cc(-c8ccccc8O)nnc7NC[C@H]6C5)CC4)CC2)C3)C(C)(C)C)cc1 (some centres unmarked) [I-137] | > 90% | 50 to 100 nM | 70 to 90% | 1 to 10 nM | A (A (>500 fold)) | < 50% | > 100 nM |
| C#Cc1ccc(CNC(=O)[C@@H]2C[C@@H](O)CN2C(=O)[C@@H](OC(=O)N2CC3(CC(N4CCC(c5cnc(N6CCc7[nH]c8nnc(-c9ccccc9O)cc8c7[C@H]6C)nc5)CC4)C3)C2)C(C)(C)C)cc1 [I-138] | > 90% | < 10 nM | > 90% | 1 to 10 nM | C (C (10-100 fold)) | > 90% | 10 to 100 nM |
| C#Cc1ccc(CNC(=O)[C@@H]2C[C@@H](O)CN2C(=O)[C@@H](N(C)C(=O)N2CC3(CC(N4CCC(c5cnc(N6CCc7[nH]c8nnc(-c9ccccc9O)cc8c7[C@H]6C)nc5)CC4)C3)C2)C(C)(C)C)cc1 [I-139] | < 50% | > 100 nM | < 50% | > 100 nM | C (C (10-100 fold)) | 50 to 70% | > 100 nM |
| C#Cc1ccc(CNC(=O)[C@@H]2C[C@@H](O)CN2C(=O)[C@@H](N(CCOC)C(=O)N2CC3(CC(N4CCC(c5cnc(N6CCc7[nH]c8nnc(-c9ccccc9O)cc8c7[C@H]6C)nc5)CC4)C3)C2)C(C)(C)C)cc1 [I-140] | < 50% | > 100 nM | < 50% | > 100 nM | C (C (10-100 fold)) | < 50% | > 100 nM |
| C#Cc1ccc(CNC(=O)[C@@H]2C[C@@H](O)CN2C(=O)[C@@H](N(CCN(C)C)C(=O)N2CC3(CC(N4CCC(c5cnc(N6CCc7[nH]c8nnc(-c9ccccc9O)cc8c7[C@H]6C)nc5)CC4)C3)C2)C(C)(C)C)cc1 [I-141] | < 50% | > 100 nM | < 50% | > 100 nM | C (C (10-100 fold)) | < 50% | > 100 nM |
| C#Cc1ccc(CNC(=O)[C@@H]2C[C@@H](O)CN2C(=O)[C@@H](NC(=O)N2CC3(CC(N4CCC(c5cnc(N6CCc7[nH]c8nnc(-c9ccccc9O)cc8c7[C@H]6C)nc5)CC4)C3)C2)C(C)(C)C)c(OCCO)c1 [I-143] | > 90% | < 10 nM | > 90% | 1 to 10 nM | C (C (10-100 fold)) | > 90% | 10 to 100 nM |
| C#Cc1ccc(CNC(=O)[C@@H]2C[C@@H](O)CN2C(=O)[C@@H](NC(=O)N2CC3(CC(N4CCC(c5cnc(N6CCc7[nH]c8nnc(-c9ccccc9O)cc8c7[C@H]6C)nc5)CC4)C3)C2)C(C)(C)C)c(OCC(=O)O)c1 [I-144] | > 90% | 10 to 50 nM | 70 to 90% | 1 to 10 nM | C (C (10-100 fold)) | 70 to 90% | > 100 nM |
| C#Cc1ccc(CNC(=O)[C@@H]2C[C@@H](O)CN2C(=O)[C@@H](NC(=O)N2CC3(CC(N4CCC(c5cnc(N6CCc7[nH]c8nnc(-c9ccccc9O)cc8c7[C@H]6C)nc5)CC4)C3)C2)C(C)(C)C)c(OCCCC(=O)O)c1 [I-145] | > 90% | 10 to 50 nM | > 90% | < 1 nM | C (C (10-100 fold)) | > 90% | 10 to 100 nM |
| C#Cc1ccc(CNC(=O)[C@@H]2C[C@@H](O)CN2C(=O)[C@@H](NC(=O)N2CC3(CC(N4CCC(c5cnc(N6CCc7[nH]c8nnc(-c9ccccc9O)cc8c7[C@H]6CO)nc5)CC4)C3)C2)C(C)(C)C)cc1 [I-146] | > 90% | < 10 nM | > 90% | 1 to 10 nM | C (C (10-100 fold)) | 70 to 90% | 10 to 100 nM |
| C#Cc1ccc(CNC(=O)[C@@H]2C[C@@H](O)CN2C(=O)[C@@H](NC(=O)N2CC3(CC(N4CCC(c5cnc(N6CCc7[nH]c8nnc(-c9ccccc9O)cc8c7[C@@H]6CO)nc5)CC4)C3)C2)C(C)(C)C)cc1 [I-147] | > 90% | 50 to 100 nM | > 90% | 1 to 10 nM | D (D (<10 fold)) | 70 to 90% | 10 to 100 nM |
| Cc1ncsc1-c1ccc(CNC(=O)[C@@H]2C[C@@H](O)CN2C(=O)[C@@H](NC(=O)[C@H]2CCC3(CC2)C[C@H](N2CCC(c4ccc(N5CCN6c7cc(-c8ccccc8O)nnc7NC[C@H]6C5)nc4)CC2)C3)C(C)(C)C)cc1 (some centres unmarked) [I-148] | > 90% | 50 to 100 nM | 70 to 90% | 10 to 100 nM | B (B (>100-500 fold)) | < 50% | > 100 nM |
